Source: US10689367B2, “Triazole pyridyl compounds as agonists of the APJ receptor” (AMGEN INC., priority 2016, dated 2020)

target: human APJ receptor (Homo sapiens (Human), UniProt P35414); assay: [35S]GTPγS binding assay on membranes from CHO cells stably expressing human APJ receptor; assay type: biochemical; conditions: membranes of CHO cells stably expressing human APJ receptor, read-out: Activity hAPJ SPA EC50 IP
How it was run: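 [35S]GTPγS binding measured on membranes from CHO cells stably expressing FLAG-tagged human APJ, with GDP, MgCl2 and NaCl levels optimized beforehand. Incubation 90 min at RT, imager read-out; EC50 from non-linear regression, averaged over several independent experiments.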

Chain of human APJ receptor (P35414 whole entry): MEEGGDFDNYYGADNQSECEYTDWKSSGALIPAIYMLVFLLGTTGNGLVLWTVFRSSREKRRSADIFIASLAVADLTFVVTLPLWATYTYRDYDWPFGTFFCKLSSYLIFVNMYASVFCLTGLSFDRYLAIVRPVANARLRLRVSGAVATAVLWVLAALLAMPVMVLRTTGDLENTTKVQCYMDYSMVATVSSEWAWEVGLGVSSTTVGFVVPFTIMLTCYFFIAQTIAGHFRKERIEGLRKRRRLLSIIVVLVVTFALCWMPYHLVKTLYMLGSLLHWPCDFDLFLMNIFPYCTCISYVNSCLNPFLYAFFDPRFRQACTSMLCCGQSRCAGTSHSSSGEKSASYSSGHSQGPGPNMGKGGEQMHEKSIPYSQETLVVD

SMILES | EC50
COCC(COC)n1c(NS(=O)(=O)[C@@H](C)[C@H](C)c2ncc(Cl)cn2)nnc1-c1cccnc1 [Example 19.0, (2S,3R)-3-(5-chloro-2-pyrimidinyl)-N-(4-(1,3dimethoxy-2-propanyl)-5-(3-pyridinyl)-4H-1,2,4-triazol-3-yl)-2-butanesulfonamide] | 26 nM
COCCn1c(NS(=O)(=O)[C@@H](C)[C@H](C)c2ncc(OC)cn2)nnc1-c1cccc(OC)n1 [Example 20.0, (2S,3R)-N-(4-(2-methoxyethyl)-5-(6-methoxy-2-pyridinyl)-4H-1,2,4-triazol-3-yl)-3-(5-methoxy-2-pyrimidinyl)-2-butanesulfonamide] | 110 nM
COCCn1c(NS(=O)(=O)[C@@H](C)[C@H](C)c2ncc(OC)cn2)nnc1-c1ccccn1 [Example 21.0, (2S,3R)-N-(4-(2-methoxyethyl)-5-(2-pyridinyl)-4H-1,2,4-triazol-3-yl)-3-(5-methoxy-2-pyrimidinyl)-2-butanesulfonamide] | 430 nM
CCOCCn1c(NS(=O)(=O)[C@@H](C)[C@H](OC)c2ncc(Cl)cn2)nnc1-c1cccc(OC)n1 [Example 22.0, (1R,2S)-1-(5-chloro-2-pyrimidinyl)-N-(4-(2-ethoxyethyl)-5-(6-methoxy-2-pyridinyl)-4H-1,2,4-triazol-3-yl)-1-methoxy-2-propanesulfonamide] | 3.2 nM
COCCn1c(NS(=O)(=O)[C@@H](C)[C@@H](OC(C)C)c2ncc(Cl)cn2)nnc1-c1ccccn1 [Example 23.0, (1S,2S)-1-(5-chloro-2-pyrimidinyl)-N-(4-(2-methoxyethyl)-5-(2-pyridinyl)-4H-1,2,4-triazol-3-yl)-1-(2-propanyloxy)-2-propanesulfonamide] | 15 nM
COc1cccc(-c2nnc(NS(=O)(=O)[C@@H](C)[C@H](OC)c3ncc(Cl)cn3)n2C(C2CC2)C2CC2)n1 [Example 25.0, (1R,2S)-1-(5-chloro-2-pyrimidinyl)-N-(4-(dicyclopropylmethyl)-5-(6-methoxy-2-pyridinyl)-4H-1,2,4-triazol-3-yl)-1-methoxy-2-propanesulfonamide] | 0.08 nM
COc1cccc(-c2nnc(NS(=O)(=O)[C@@H](C)[C@H](OC)c3ncc(Cl)cn3)n2CCSC)n1 [Example 26.0, (1R,2S)-1-(5-chloropyrimidin-2-yl)-1-methoxy-N-(5-(6-methoxypyridin-2-yl)-4-(2-(methylthio)ethyl)-4H-1,2,4-triazol-3-yl)propane-2-sulfonamide] | 12 nM
COCCOc1cccc(-c2nnc(NS(=O)(=O)[C@@H](C)[C@H](OC)c3ncc(Cl)cn3)n2C(COC)COC)n1 [Example 42.0] | 17 nM
COc1cccc(-c2nnc(NS(=O)(=O)[C@@H](C)[C@H](OC)c3ncc(Cl)cn3)n2CCOC(F)F)n1 [Example 43.0] | 3.7 nM
COc1cccc(-c2nnc(NS(=O)(=O)[C@@H](C)[C@H](OC)c3ncc(Cl)cn3)n2CCC#N)n1 [Example 44.0] | 4.9 nM
COc1cccc(-c2nnc(NS(=O)(=O)[C@@H](C)[C@H](OC)c3ncc(Cl)cn3)n2CCC(N)=O)n1 [Example 45.0] | 60 nM
CO[C@H](c1ncc(Cl)cn1)[C@H](C)S(=O)(=O)Nc1nnc(-c2ccccn2)n1C(C1CC1)C1CC1 [Example 46.0] | 0.33 nM
CCC(CC)n1c(NS(=O)(=O)[C@@H](C)[C@H](OC)c2ncc(Cl)cn2)nnc1-c1ccccn1 [Example 47.0] | 5.3 nM
COC[C@H](C)n1c(NS(=O)(=O)[C@@H](C)[C@H](OC)c2ncc(Cl)cn2)nnc1-c1cccc(OC)n1 [Example 48.0] | 1.3 nM
COC[C@@H](C)n1c(NS(=O)(=O)[C@@H](C)[C@H](OC)c2ncc(Cl)cn2)nnc1-c1cccc(OC)n1 [Example 49.0] | 0.88 nM
COCC1(n2c(NS(=O)(=O)[C@@H](C)[C@H](OC)c3ncc(Cl)cn3)nnc2-c2cccc(OC)n2)CCC1 [Example 50.0] | 0.46 nM
COCC1(n2c(NS(=O)(=O)[C@@H](C)[C@H](OC)c3ncc(Cl)cn3)nnc2-c2ccccn2)CCC1 [Example 51.0] | 1.8 nM
COc1cccc(-c2nnc(NS(=O)(=O)[C@@H](C)[C@H](OC)c3ncc(Cl)cn3)n2CCS(C)(=O)=O)n1 [Example 57.0, (1R,2S)-1-(5-Chloro-2-pyrimidinyl)-1-methoxy-N-(5-(6-methoxy-2-pyridinyl)-4-(2-(methylsulfonyl)ethyl)-4H-1,2,4-triazol-3-yl)-2-propanesulfonamide] | 211 nM
Cc1cnc([C@H](OC(C)C)[C@H](C)S(=O)(=O)Nc2nnc(-c3cncc(C)c3)n2C2(C)CC2)nc1 [Example 58.0] | 42 nM
CO[C@H](c1ncc(Cl)cn1)[C@H](C)S(=O)(=O)Nc1nnc(-c2cccc(C)n2)n1C1(C)CCC1 [Example 59.0] | 28 nM
COCC1(n2c(NS(=O)(=O)[C@@H](C)[C@H](OC)c3ncc(Cl)cn3)nnc2-c2cccnc2)CC1 [Example 60.0] | 1.2 nM
COCC1(n2c(NS(=O)(=O)[C@@H](C)[C@H](OC)c3ncc(Cl)cn3)nnc2-c2ccccn2)CC1 [Example 61.0] | 0.89 nM
COCC1(n2c(NS(=O)(=O)[C@@H](C)[C@@H](OC(C)C)c3ncc(C)cn3)nnc2-c2cccnc2)CC1 [Example 62.0] | 27 nM
COCC1(n2c(NS(=O)(=O)[C@@H](C)[C@@H](OC(C)C)c3ncc(C)cn3)nnc2-c2cncc(C)c2)CC1 [Example 63.0] | 20 nM
COCC1(n2c(NS(=O)(=O)[C@@H](C)[C@@H](OC(C)C)c3ncc(C)cn3)nnc2-c2cccc(OC)n2)CC1 [Example 64.0] | 0.16 nM
COCC1(n2c(NS(=O)(=O)[C@@H](C)[C@@H](OC(C)C)c3ncc(C)cn3)nnc2-c2ccccn2)CC1 [Example 65.0] | 24 nM
COCC1(n2c(NS(=O)(=O)[C@@H](C)[C@H](C)c3cnc(C)cn3)nnc2-c2cccnc2)CC1 [Example 66.0] | 38 nM
COCC1(n2c(NS(=O)(=O)[C@@H](C)[C@H](OC)c3ncc(C)cn3)nnc2-c2ccccn2)CC1 [Example 67.0] | 24 nM

SMILES | EC50
COCC1(n2c(NS(=O)(=O)[C@@H](C)[C@H](C)c3ncc(Cl)cn3)nnc2-c2cccnc2)CC1 [Example 68.0] | 2.8 nM
COc1cccc(-c2nnc(NS(=O)(=O)[C@@H](C)[C@H](OC)c3ncc(Cl)cn3)n2C2CC2)n1 [Example 69.0] | 0.89 nM
COc1cccc(-c2nnc(NS(=O)(=O)[C@@H](C)[C@@H](OC(C)C)c3ncc(Cl)cn3)n2C2CC2)n1 [Example 70.0] | 0.6 nM
COc1cccc(-c2nnc(NS(=O)(=O)[C@@H](C)[C@H](OC)c3ncc(Cl)cn3)n2CC2CCC2)n1 [Example 73.0] | 3 nM
COc1cccc(-c2nnc(NS(=O)(=O)[C@@H](C)[C@H](OC)c3ncc(Cl)cn3)n2CCc2ccc(F)cc2)n1 [Example 74.0] | 31 nM
COc1cccc(-c2nnc(NS(=O)(=O)[C@@H](C)[C@H](OC)c3ncc(Cl)cn3)n2Cc2ccon2)n1 [Example 76.0] | 3.3 nM
COc1cccc(-c2nnc(NS(=O)(=O)[C@@H](C)[C@H](OC)c3ncc(Cl)cn3)n2CC(OC)OC)n1 [Example 77.0] | 135 nM
CO[C@H](c1ncc(Cl)cn1)[C@H](C)S(=O)(=O)Nc1nnc(-c2ccccn2)n1C1(C)CC1 [Example 97.0] | 11 nM
COCC(COC)n1c(NS(=O)(=O)[C@@H](C)[C@H](C)c2ncc(C)cn2)nnc1-c1cccc(OC)n1 [Example 98.0] | 6.2 nM
COCC(COC)n1c(NS(=O)(=O)[C@@H](C)[C@H](C)c2ncc(OC)cn2)nnc1-c1cccc(OC)n1 [Example 99.0] | 4.2 nM
COCC(COC)n1c(NS(=O)(=O)[C@@H](C)[C@H](OC)c2ncc(C)cn2)nnc1-c1cccc(OC)n1 [Example 100.0] | 6.4 nM
COCC(COC)n1c(NS(=O)(=O)[C@@H](C)[C@H](OC)c2cnc(OC)cn2)nnc1-c1cccc(OC)n1 [Example 101.0] | 8.9 nM
COCC(COC)n1c(NS(=O)(=O)[C@@H](C)[C@H](C)c2cnc(C)cn2)nnc1-c1cccc(OC)n1 [Example 102.0] | 20 nM
COCC(COC)n1c(NS(=O)(=O)[C@@H](C)[C@H](OC)c2cnc(C)cn2)nnc1-c1cccc(OC)n1 [Example 103.0] | 15 nM
COCC(COC)n1c(NS(=O)(=O)[C@@H](C)[C@@H](OC(C)C)c2ncc(C)cn2)nnc1-c1cccc(OC)n1 [Example 104.0] | 0.39 nM
COCC(COC)n1c(NS(=O)(=O)[C@@H](C)[C@@H](OC(C)C)c2cnc(C)cn2)nnc1-c1cccc(OC)n1 [Example 105.0] | 2.8 nM
COc1cccc(-c2nnc(NS(=O)(=O)[C@@H](C)[C@H](OC)c3ncc(Cl)cn3)n2C2(CF)CC2)n1 [Example 106.0] | 0.38 nM
COc1cccc(-c2nnc(NS(=O)(=O)[C@@H](C)[C@H](OC)c3ncc(Cl)cn3)n2C2(C3CC3)CC2)n1 [Example 107.0] | 0.42 nM
CO[C@H](c1ncc(Cl)cn1)[C@H](C)S(=O)(=O)Nc1nnc(-c2ccccn2)n1C1(C2CC2)CC1 [Example 108.0] | 5.9 nM
COc1cccc(-c2nnc(NS(=O)(=O)[C@@H](C)[C@H](OC)c3cnc(C)cn3)n2C2(C3CC3)CC2)n1 [Example 109.0] | 9.6 nM
CO[C@H](c1cnc(C)cn1)[C@H](C)S(=O)(=O)Nc1nnc(-c2ccccn2)n1C1(C2CC2)CC1 [Example 110.0] | 110 nM
CCC(CC)n1c(NS(=O)(=O)[C@@H](C)[C@H](OC)c2ncc(Cl)cn2)nnc1-c1cccnc1 [Example 111.0] | 27 nM
CO[C@H](c1ncc(Cl)cn1)[C@H](C)S(=O)(=O)Nc1nnc(-c2cccnc2)n1C(C1CC1)C1CC1 [Example 112.0] | 3.3 nM
COCC(COC)n1c(NS(=O)(=O)[C@@H](C)[C@@H](OC(C)C)c2ncc(Cl)cn2)nnc1-c1ccccn1 [Example 113.0] | 1.8 nM
COc1cccc(-c2nnc(NS(=O)(=O)[C@@H](C)[C@H](C)c3ncc(C)cn3)n2C2CC2)n1 [Example 114.0] | 54 nM
COc1cnc([C@@H](C)[C@H](C)S(=O)(=O)Nc2nnc(-c3cccc(OC)n3)n2C2CC2)cn1 [Example 118.0] | 31 nM
COc1cnc([C@@H](C)[C@H](C)S(=O)(=O)Nc2nnc(-c3cccc(OC)n3)n2C2CC2)nc1 [Example 119.0] | 28 nM
